{"source": "paper PMC10780910", "about": "“Opioid/Dopamine Receptor Binding Studies, NMR and Molecular Dynamics Simulation of LENART01 Chimera, an Opioid-Bombesin-like Peptide” (Molecules, 2024)", "key": {"[1]": {"system": "opioid and dopamine receptors", "assay": "Functional [35S]GTPγS binding, spinal cord membrane", "type": "biochemical, rat (Wistar)", "conditions": "for Emax ± S.E.M., ligand alone / Emax ± S.E.M., Ligand + Cyprodime / Emax / Emax ± S.E.M., Ligand + Risperidone: rat spinal cord membrane, 30 °C, 60 min; for Emax ± S.E.M., ligand alone: Tris-EGTA pH 7.4, 0.05 nM [35S]GTPγS; for Emax ± S.E.M., Ligand + Cyprodime: opioid system, + cyprodime (selective MOR antagonist); for Emax ± S.E.M., Ligand + Cyprodime / Emax / Emax ± S.E.M., Ligand + Risperidone: pH 7.4; for Emax ± S.E.M., Ligand + Cyprodime / Emax ± S.E.M., Ligand + Risperidone: *** p < 0.001 vs ligand alone; for Emax / Emax ± S.E.M., Ligand + Risperidone: dopaminergic system; for Emax: + SCH-39166 (selective D1R antagonist), ns vs ligand alone, read-out: Emax ± S.E.M., Ligand + SCH-39166; for Emax ± S.E.M., Ligand + Risperidone: + risperidone (selective D2R antagonist)", "experimental": "(§1) Both male and female Wistar rats were used for membrane preparations (brains and spinal cords). Animals were housed at 22 ± 0.5 °C with a 12:12 h light–dark cycle. Food and water were available ad libitum. All animal manipulations were carried out according to the European Communities Council Directives ([…]) and the Hungarian Act for the Protection of Animals in Research (XXVIII.tv. 32.§).\n(§2) The functional [^35S]GTPγS binding experiments were performed as previously described. In brief, the brain and spinal cord homogenates were incubated at 30 °C for 60 min in Tris-EGTA buffer (pH 7.4) containing [^35S]GTPγS (0.05 nM) and in the presence of varying concentrations of the ligand. Non-specific binding was determined in the presence of non-radiolabeled 10 μM GTPγS. The reaction was stopped by rapid filtration under vacuum (Brandel M24R Cell Harvester), and the samples were washed with cold Tris-HCl buffer. The radioactivity of the dried filters was determined by scintillation counting."}, "[2]": {"system": "opioid and dopamine receptors", "assay": "Functional [35S]GTPγS binding, brain membrane", "type": "biochemical, rat (Wistar)", "conditions": "for Emax ± S.E.M., ligand alone: Tris-EGTA pH 7.4, 0.05 nM [35S]GTPγS; for Emax ± S.E.M., Ligand + Cyprodime: opioid system, + cyprodime (selective MOR antagonist), *** p < 0.001 vs ligand alone (unpaired t-test); for Emax ± S.E.M., Ligand + Risperidone: + risperidone (selective D2R antagonist), *** p < 0.001 vs ligand alone", "experimental": "as §1, §2"}, "[3]": {"system": "MOR", "assay": "Competitive [3H]DAMGO binding (MOR)", "set-up": "species or system rat (Wistar)", "conditions": "receptor binding assay, rat brain and spinal cord homogenates", "from_the_text": "(§3) The chimeric peptide LENART01 was examined in [^3H]DAMGO, [^3H]SCH−23390 and [^3H]Spiperone homolog displacement in rat brains and spinal cord homogenates. The binding affinity of the hybrid and its intrinsic activity value were compared with dermorphin and ranatensin, its structural components.\n(§4) Figure 3 Binding affinity of LENART01 at MOR (A,B), D1R (C,D) and D2R (E,F) receptors, respectively, using [^3H]DAMGO and [^3H]SCH−23390 and [^3H]Spiperone as radioligands. Results represent mean ± SEM of 3 independent experiments, each performed in duplicate.\nas §1\n(§5) Competitive analysis of the chimera activity was performed in the presence of naloxone (in case of MOR displacement studies) or SCH-23390 (for D1R) and spiperone (for D2R). […] The radioactivity of the dried filters was detected using an UltimaGold^TM MV aqueous scintillation cocktail with a Packard Tricarb 2300TR liquid scintillation counter. […]"}, "[4]": {"system": "E. coli strains", "conditions": "different E. coli strains; cited from earlier work", "from_the_text": "(§6) Noteworthily, the N-terminal pharmacophore of LENART01 consists of dermorphin with an amino acid sequence of YdAFGYPS. At the same time, the C-terminus was constructed from ranatensin, which was additionally heavily modified, resulting in a sequence of GHFM."}, "[5]": {"system": "D2R", "assay": "Competitive [3H]Spiperone binding (D2R)", "set-up": "species or system rat (Wistar)", "conditions": "rat brain and spinal cord homogenates", "from_the_text": "as §3, §4, §1, §5"}, "[6]": {"system": "dopamine D2 receptor (D2R)", "conditions": "cited from earlier work", "from_the_text": "as §6"}, "[7]": {"system": "dopaminergic receptors", "conditions": "ref Zhu et al. 10; cited from earlier work"}, "[8]": {"conditions": "rat brain membrane, 30 °C, 60 min"}, "[9]": {"conditions": "rat brain membrane, 30 °C, 60 min, pH 7.4"}, "[10]": {"conditions": "rat brain membrane, dopaminergic system, 30 °C, 60 min, pH 7.4"}}}
{"substance": "YdAFGYPS [dermorphin, reference compound]", "values": [{"measurement": "Emax ± S.E.M., ligand alone", "setting": "[1]", "value": "140.0 ± 1.8", "unit": "%"}, {"measurement": "Emax ± S.E.M., Ligand + Cyprodime", "setting": "[1]", "value": "100.4 ± 0.9 *** %"}, {"measurement": "Emax ± S.E.M., ligand alone", "setting": "[2]; [8]", "value": "140.5 ± 2.9", "unit": "%"}, {"measurement": "Emax ± S.E.M., Ligand + Cyprodime", "setting": "[2]; [9]", "value": "100.0 ± 1.1 *** %"}]}
{"substance": "YdAFGYPSGHFM [LENART01]", "values": [{"measurement": "binding to MOR", "setting": "[3]", "value": "bound to mu-opioid and dopamine receptors"}, {"measurement": "antimicrobial activity", "setting": "[4]", "value": "antimicrobial activity against different E. coli strains"}, {"measurement": "Emax", "setting": "[1]", "value": "136 ± 1.7", "unit": "%"}, {"measurement": "Emax ± S.E.M., Ligand + Risperidone", "setting": "[1]", "value": "101.6 ± 1.2 *** %"}, {"measurement": "Emax ± S.E.M., ligand alone", "setting": "[1]", "value": "136.3 ± 2.2", "unit": "%"}, {"measurement": "Emax ± S.E.M., Ligand + Cyprodime", "setting": "[1]", "value": "100.8 ± 1.1 *** %"}, {"measurement": "maximal stimulation vs dermorphin", "setting": "[1]; spinal cord membrane, [35S]GTPγS", "value": "less than that of dermorphin"}, {"measurement": "selectivity to D2R compared to D1R", "setting": "[5]; [3H]Spiperone (D2R) vs [3H]SCH-23390 (D1R), Tris-HCl pH 7.4, 3 independent experiments in duplicate", "value": "high selectivity to D2R compared to D1R"}, {"measurement": "binding to dopamine receptors", "setting": "[5]; receptor binding assay in vitro, abstract statement", "value": "bound to mu-opioid and dopamine receptors"}, {"measurement": "Emax", "setting": "[2]; rat brain membrane, dopaminergic system, + SCH-39166 (selective D1R antagonist), 30 °C, 60 min, pH 7.4, ns for chimera, *** p < 0.001 for ranatensin, read-out: Emax ± S.E.M., Ligand + SCH-39166", "value": "140.8 ± 0.8", "unit": "%"}, {"measurement": "Emax ± S.E.M., Ligand + Risperidone", "setting": "[2]; [10]", "value": "101.1 ± 0.7 *** %"}, {"measurement": "Emax ± S.E.M., ligand alone", "setting": "[2]; [8]", "value": "140.6 ± 1.0", "unit": "%"}, {"measurement": "Emax ± S.E.M., Ligand + Cyprodime", "setting": "[2]; [9]", "value": "100.4 ± 1.4 *** %"}, {"measurement": "dose-dependent increases in functional binding vs dermorphin", "setting": "[2]; rat brain membranes, [35S]GTPγS", "value": "equal to the increases in dermorphin"}, {"measurement": "effect of SCH−39166 on efficacy", "setting": "[2]; selective D1R antagonist SCH−39166, tissue not specified", "value": "did not significantly reverse the efficacy"}, {"measurement": "effect of risperidone on stimulation", "setting": "[2]; selective D2R antagonist risperidone, tissue not specified", "value": "brought down the stimulation of LENART01 to basal activity"}, {"measurement": "effect of cyprodime on efficacy", "setting": "[2]; selective MOR antagonist cyprodime, tissue not specified", "value": "reversed the efficacy"}]}
{"substance": "ranatensin [reference compound]", "values": [{"measurement": "binding to MOR", "setting": "[3]", "value": "did not bind to MOR"}, {"measurement": "interaction with D2R", "setting": "[6]", "value": "known to interact with"}, {"measurement": "Emax", "setting": "[1]", "value": "117.4 ± 1.1", "unit": "%"}, {"measurement": "Emax ± S.E.M., Ligand + Risperidone", "setting": "[1]", "value": "100.0 ± 0.7 *** %"}, {"measurement": "Emax ± S.E.M., ligand alone", "setting": "[1]", "value": "119.8 ± 1.3", "unit": "%"}, {"measurement": "analgesia and naloxone antagonism", "setting": "[7]", "value": "naloxone failed to antagonize the pain-relieving effect"}, {"measurement": "Emax ± S.E.M., Ligand + SCH-39166", "setting": "[2]; rat brain membrane, dopaminergic system, + SCH-39166 (selective D1R antagonist), 30 °C, 60 min, pH 7.4, ns for chimera, *** p < 0.001 for ranatensin", "value": "119.1 ± 0.8 *** %"}, {"measurement": "Emax ± S.E.M., Ligand + Risperidone", "setting": "[2]; [10]", "value": "101.5 ± 1.7 *** %"}, {"measurement": "Emax ± S.E.M., ligand alone", "setting": "[2]; [8]", "value": "124.1 ± 1.9", "unit": "%"}]}
